“And” between values parts separate entries of the source, which are not always exact repeats. Equal entries are not always repeated.
Assays:
[1] = tested on: GABA; experiment: Eurofins binding screen; settings: 10 µM
[2] = tested on: BZD (central); experiment: Eurofins binding screen; settings: 10 µM
[3] = target: Serotonin 5-HT5a (Homo sapiens, UniProt P47898); experiment: Eurofins binding screen
[4] = target: Galanin GAL1 (Homo sapiens, UniProt P47211); experiment: Eurofins binding screen
[5] = tested on: TNF-alpha; experiment: Eurofins binding screen; settings: 10 µM
[6] = target: Serotonin 5-HT1A (Homo sapiens, UniProt P08908); experiment: Eurofins binding screen
[7] = target: Serotonin transporter SET (Homo sapiens, UniProt P31645); experiment: Eurofins binding screen
[8] = target: Serotonin 5-HT2C (Homo sapiens, UniProt P28335); experiment: Eurofins binding screen
[9] = target: Endothelin ETA (Homo sapiens, UniProt P25101); experiment: Eurofins binding screen
[10] = tested on: Kinase PDGF; experiment: Eurofins binding screen; settings: 10 µM
[11] = target: Muscarinic M4 (Homo sapiens, UniProt P08173); experiment: Eurofins binding screen
[12] = tested on: Potassium channels SKCa; experiment: Eurofins binding screen; settings: 10 µM
[13] = target: Neurokinin NK2 (Homo sapiens, UniProt P21452); experiment: Eurofins binding screen
[14] = target: Dopamine D5 (Homo sapiens, UniProt P21918); experiment: Eurofins binding screen
[15] = tested on: Adrenergic alpha1; experiment: Eurofins binding screen; settings: 10 µM
[16] = target: Neurokinin NK1 (Homo sapiens, UniProt P25103); experiment: Eurofins binding screen
[17] = target: Cholecystokinin CCK1 (CCKA) (Homo sapiens, UniProt P32238); experiment: Eurofins binding screen
Chain of Cholecystokinin CCK1 (CCKA) (P32238 whole entry): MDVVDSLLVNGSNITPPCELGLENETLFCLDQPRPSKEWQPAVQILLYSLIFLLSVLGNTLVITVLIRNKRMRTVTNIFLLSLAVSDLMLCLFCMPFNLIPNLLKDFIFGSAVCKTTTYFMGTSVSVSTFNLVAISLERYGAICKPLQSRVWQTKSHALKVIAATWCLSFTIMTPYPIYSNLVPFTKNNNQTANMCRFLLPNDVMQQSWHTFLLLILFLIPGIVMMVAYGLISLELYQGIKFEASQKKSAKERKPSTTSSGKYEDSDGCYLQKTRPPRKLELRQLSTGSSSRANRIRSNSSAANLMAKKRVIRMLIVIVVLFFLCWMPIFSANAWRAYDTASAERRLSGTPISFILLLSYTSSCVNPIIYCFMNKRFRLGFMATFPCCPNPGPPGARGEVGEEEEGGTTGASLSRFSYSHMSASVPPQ

[18] = target: Dopamine D3 (Homo sapiens, UniProt P35462); experiment: Eurofins binding screen
Chain of Dopamine D3 (P35462 whole entry): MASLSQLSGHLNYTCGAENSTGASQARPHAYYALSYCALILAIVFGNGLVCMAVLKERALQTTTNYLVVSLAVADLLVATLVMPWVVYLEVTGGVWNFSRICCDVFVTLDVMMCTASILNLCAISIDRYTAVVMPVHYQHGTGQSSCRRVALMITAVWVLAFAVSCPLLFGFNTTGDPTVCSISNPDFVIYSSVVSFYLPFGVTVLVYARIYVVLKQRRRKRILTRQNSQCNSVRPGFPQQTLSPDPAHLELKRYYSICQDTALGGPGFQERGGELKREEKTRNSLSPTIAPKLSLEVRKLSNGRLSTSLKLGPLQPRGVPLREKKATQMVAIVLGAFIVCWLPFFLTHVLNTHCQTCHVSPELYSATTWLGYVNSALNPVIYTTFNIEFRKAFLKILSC

[19] = tested on: Bombesin BB; experiment: Eurofins binding screen; settings: 10 µM
[20] = target: PR (progesterone receptor) (Homo sapiens, UniProt P06401); experiment: Eurofins binding screen
Chain of PR (progesterone receptor) (P06401 whole entry): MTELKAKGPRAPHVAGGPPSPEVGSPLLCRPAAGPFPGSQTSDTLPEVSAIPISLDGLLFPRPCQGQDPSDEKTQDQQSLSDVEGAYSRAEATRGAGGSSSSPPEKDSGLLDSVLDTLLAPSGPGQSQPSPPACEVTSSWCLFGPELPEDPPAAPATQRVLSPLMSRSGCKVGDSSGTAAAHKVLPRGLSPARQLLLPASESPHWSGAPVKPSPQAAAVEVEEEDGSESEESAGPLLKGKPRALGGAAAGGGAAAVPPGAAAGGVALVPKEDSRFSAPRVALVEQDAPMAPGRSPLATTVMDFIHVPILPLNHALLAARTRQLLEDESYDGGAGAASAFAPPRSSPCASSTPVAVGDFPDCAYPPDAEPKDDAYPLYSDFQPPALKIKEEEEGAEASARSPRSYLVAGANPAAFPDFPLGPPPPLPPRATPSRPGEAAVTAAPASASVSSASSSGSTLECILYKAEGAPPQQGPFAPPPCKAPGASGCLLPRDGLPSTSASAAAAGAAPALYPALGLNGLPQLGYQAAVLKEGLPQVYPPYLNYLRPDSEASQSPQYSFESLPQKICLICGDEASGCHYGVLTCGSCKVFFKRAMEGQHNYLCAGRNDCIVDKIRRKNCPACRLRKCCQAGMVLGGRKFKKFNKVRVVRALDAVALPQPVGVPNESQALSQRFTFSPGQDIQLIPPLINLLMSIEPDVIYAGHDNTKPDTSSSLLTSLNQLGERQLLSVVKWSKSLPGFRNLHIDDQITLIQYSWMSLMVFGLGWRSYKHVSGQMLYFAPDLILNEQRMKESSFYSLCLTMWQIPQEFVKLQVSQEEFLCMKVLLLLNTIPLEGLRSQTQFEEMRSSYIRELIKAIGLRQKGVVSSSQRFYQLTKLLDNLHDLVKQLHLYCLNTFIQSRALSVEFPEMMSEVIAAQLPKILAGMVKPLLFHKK

[21] = tested on: Cl- channel; experiment: Eurofins binding screen; settings: 10 µM
[22] = tested on: mice; experiment: Precipitated withdrawal in THC-dependent mice; assay type: in vivo; settings: highest dose tested […]
Procedure: From day 1 to days 4–5, mice were injected i.p. with vehicle or THC (20 mg kg^−1) twice per day. On the last day of treatment, mice in the THC group received rimonabant or AEF0117. All other animals received the respective vehicle. […] For the measure of precipitated withdrawal, mice were placed in a novel home cage, and a video camera was positioned in front of each cage to record behavior. Scoring was performed for 1 min every 5-min period. Two withdrawal signs were analyzed—paw tremors and head shaking—because they are the most common signs of THC withdrawal observed in mice[14].

[23] = target: PBR (peripheral benzodiazepine receptor) (Rattus norvegicus, UniProt P16257); experiment: Eurofins binding screen; settings: for Percent inhibition of control specific binding: 10 µM
Chain of PBR (peripheral benzodiazepine receptor) (P16257 whole entry): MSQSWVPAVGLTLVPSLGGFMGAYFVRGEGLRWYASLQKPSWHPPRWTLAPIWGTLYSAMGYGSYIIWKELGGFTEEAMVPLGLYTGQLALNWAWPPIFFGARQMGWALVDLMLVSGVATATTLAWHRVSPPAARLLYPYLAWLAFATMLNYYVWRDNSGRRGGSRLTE

[24] = target: Adrenergic beta1 (Homo sapiens, UniProt P08588); experiment: Eurofins binding screen
[25] = target: Melanocortin MC4 (Homo sapiens, UniProt P32245); experiment: Eurofins binding screen
[26] = target: PAC1 - PACAP (Homo sapiens, UniProt P41586); experiment: Eurofins binding screen
Chain of PAC1 - PACAP (P41586 21-468): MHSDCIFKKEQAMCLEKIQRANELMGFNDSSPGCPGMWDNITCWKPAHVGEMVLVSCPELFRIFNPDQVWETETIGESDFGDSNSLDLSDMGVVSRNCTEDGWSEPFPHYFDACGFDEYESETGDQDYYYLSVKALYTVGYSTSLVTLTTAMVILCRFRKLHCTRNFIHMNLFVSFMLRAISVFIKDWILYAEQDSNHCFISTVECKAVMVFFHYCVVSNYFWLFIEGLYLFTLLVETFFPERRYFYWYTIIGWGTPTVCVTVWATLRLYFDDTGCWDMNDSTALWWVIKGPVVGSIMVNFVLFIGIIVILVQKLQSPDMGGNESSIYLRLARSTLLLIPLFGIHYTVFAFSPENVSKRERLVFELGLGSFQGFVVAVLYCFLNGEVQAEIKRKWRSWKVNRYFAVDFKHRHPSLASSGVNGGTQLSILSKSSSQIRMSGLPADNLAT

[27] = target: Opioid mu (MOP) (Homo sapiens, UniProt P35372); experiment: Eurofins binding screen
[28] = target: Serotonin 5-HT2B (Homo sapiens, UniProt P41595); experiment: Eurofins binding screen
Chain of Serotonin 5-HT2B (P41595 whole entry): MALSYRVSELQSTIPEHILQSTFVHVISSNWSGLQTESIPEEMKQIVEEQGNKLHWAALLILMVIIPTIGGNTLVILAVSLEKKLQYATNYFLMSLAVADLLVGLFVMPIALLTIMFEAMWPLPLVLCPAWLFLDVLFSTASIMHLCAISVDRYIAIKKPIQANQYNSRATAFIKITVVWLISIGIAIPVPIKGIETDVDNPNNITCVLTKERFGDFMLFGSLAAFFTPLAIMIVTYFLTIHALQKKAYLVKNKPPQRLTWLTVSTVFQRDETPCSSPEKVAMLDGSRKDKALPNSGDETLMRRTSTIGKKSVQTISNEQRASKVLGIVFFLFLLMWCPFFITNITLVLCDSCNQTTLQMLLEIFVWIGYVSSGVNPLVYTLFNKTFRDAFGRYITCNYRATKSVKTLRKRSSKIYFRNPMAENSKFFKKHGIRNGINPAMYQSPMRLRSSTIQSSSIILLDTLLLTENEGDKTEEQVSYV

[29] = target: Muscarinic M2 (Homo sapiens, UniProt P08172); experiment: Eurofins binding screen
Chain of Muscarinic M2 (P08172 whole entry): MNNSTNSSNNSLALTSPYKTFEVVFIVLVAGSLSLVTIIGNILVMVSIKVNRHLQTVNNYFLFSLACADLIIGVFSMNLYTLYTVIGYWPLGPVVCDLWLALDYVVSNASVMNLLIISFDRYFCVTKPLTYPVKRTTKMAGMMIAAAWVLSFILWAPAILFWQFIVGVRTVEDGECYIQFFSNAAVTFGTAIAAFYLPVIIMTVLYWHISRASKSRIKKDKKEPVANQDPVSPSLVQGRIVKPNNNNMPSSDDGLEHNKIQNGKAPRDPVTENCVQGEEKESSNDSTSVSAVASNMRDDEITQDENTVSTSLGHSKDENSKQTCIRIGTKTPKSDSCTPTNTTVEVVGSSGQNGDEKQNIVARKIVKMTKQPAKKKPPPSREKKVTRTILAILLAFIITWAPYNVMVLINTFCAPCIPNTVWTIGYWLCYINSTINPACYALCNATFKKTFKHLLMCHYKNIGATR

[30] = target: Vasopressin V1a (Homo sapiens, UniProt P37288); experiment: Eurofins binding screen
Chain of Vasopressin V1a (P37288 whole entry): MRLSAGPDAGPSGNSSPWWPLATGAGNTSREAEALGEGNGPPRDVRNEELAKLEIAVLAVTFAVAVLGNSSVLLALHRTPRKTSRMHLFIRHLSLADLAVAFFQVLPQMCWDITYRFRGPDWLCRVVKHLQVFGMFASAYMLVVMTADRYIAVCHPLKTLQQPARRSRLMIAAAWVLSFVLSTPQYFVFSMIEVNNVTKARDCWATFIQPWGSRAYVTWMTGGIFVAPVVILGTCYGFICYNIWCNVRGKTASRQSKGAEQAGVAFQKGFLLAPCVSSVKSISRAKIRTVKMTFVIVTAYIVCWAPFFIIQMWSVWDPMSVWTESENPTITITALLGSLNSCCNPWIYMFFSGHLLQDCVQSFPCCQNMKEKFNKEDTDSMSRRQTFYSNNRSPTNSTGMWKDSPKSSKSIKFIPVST

[31] = target: Cannabinoid CB1 (Homo sapiens, UniProt P21554); experiment: Eurofins binding screen
[32] = tested on: Calcium channels Ca2+-L; experiment: Eurofins binding screen; settings: 10 µM
[33] = target: Histamine H1 (Homo sapiens, UniProt P35367); experiment: Eurofins binding screen
Chain of Histamine H1 (P35367 whole entry): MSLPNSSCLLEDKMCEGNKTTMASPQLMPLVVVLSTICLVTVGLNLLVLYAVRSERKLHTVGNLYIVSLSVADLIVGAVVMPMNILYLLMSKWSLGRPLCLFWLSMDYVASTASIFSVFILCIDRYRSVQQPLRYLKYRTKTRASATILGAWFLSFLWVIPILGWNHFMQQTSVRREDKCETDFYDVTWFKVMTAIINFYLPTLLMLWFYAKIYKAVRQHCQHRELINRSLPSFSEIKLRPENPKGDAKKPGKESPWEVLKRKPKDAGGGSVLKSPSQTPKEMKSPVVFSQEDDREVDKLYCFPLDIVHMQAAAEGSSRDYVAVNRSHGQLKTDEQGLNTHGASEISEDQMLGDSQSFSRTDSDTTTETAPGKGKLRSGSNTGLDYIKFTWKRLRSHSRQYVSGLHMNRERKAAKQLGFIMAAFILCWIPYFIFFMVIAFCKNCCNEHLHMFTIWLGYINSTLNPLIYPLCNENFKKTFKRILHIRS

[34] = target: NOP (ORL1) (Homo sapiens, UniProt P41146); experiment: Eurofins binding screen
Chain of NOP (ORL1) (P41146 whole entry): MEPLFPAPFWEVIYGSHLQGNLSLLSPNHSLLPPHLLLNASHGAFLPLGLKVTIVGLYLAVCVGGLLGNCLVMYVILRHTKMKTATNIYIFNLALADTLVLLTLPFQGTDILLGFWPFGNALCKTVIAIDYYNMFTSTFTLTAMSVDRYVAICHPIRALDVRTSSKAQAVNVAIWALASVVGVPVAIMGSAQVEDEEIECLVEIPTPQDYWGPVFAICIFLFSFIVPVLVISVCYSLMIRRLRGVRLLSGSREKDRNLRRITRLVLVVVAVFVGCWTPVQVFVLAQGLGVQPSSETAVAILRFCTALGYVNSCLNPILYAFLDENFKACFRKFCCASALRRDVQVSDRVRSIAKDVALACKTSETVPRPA

[35] = target: Melatonin MT1 (ML1A) (Homo sapiens, UniProt P48039); experiment: Eurofins binding screen
[36] = tested on: sigma; experiment: Eurofins binding screen; settings: 10 µM
[37] = tested on: Sodium channels Na+-site2; experiment: Eurofins binding screen; settings: 10 µM
[38] = target: Serotonin 5-HT3 (Homo sapiens, UniProt P46098); experiment: Eurofins binding screen
[39] = tested on: Potassium channels KV; experiment: Eurofins binding screen; settings: 10 µM
[40] = tested on: Opioid kappa (KOP); experiment: Eurofins binding screen; settings: 10 µM
[41] = read-out: Percent inhibition of control specific binding

Chain of Serotonin 5-HT5a (P47898 whole entry): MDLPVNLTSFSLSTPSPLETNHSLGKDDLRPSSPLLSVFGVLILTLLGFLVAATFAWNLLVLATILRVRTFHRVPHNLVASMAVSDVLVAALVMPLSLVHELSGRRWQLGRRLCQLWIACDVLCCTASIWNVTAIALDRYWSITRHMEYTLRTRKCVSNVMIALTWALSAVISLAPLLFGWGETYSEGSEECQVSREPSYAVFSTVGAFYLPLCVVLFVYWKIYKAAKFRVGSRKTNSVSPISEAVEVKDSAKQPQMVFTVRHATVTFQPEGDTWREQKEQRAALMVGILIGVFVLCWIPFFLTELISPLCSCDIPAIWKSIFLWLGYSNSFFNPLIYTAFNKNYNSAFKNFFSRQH

COc1ccc(CO[C@H]2CC[C@@]3(C)C(=CC[C@H]4[C@@H]5CC[C@H](C(C)=O)[C@@]5(C)CC[C@@H]43)C2)cc1 [AEF0117, 3β-(4-methoxybenzyloxy)pregn-5-en-20-one]
Percent inhibition of control specific binding [1]: 9%
Percent inhibition of control specific binding [2]: 1%
inhibition at 10 µM [3, 41]: 1%
inhibition at 10 µM [4, 41]: -4%
Percent inhibition of control specific binding [5]: -5%
inhibition at 10 µM [6, 41]: -11%
inhibition at 10 µM [7, 41]: 8%
inhibition at 10 µM [8, 41]: 4%
inhibition at 10 µM [9, 41]: -4%
Percent inhibition of control specific binding [10]: -8%
inhibition at 10 µM [11, 41]: 0%
Percent inhibition of control specific binding [12]: 12%
inhibition at 10 µM [13, 41]: -28%
inhibition at 10 µM [14, 41]: -2%
Percent inhibition of control specific binding [15]: -5%
inhibition at 10 µM [16, 41]: -18%
inhibition at 10 µM [17, 41]: -19%
inhibition at 10 µM [18, 41]: 2%
Percent inhibition of control specific binding [19]: 12%
inhibition at 10 µM [20, 41]: 29%
Percent inhibition of control specific binding [21]: -4%
Overall effect: precipitated withdrawal in THC-dependent mice [22]: No
inhibition at 10 µM [23, 41]: 4%
inhibition at 10 µM [24, 41]: 3%
inhibition at 10 µM [25, 41]: -8%
inhibition at 10 µM [26, 41]: 4%
inhibition at 10 µM [27, 41]: -10%
inhibition at 10 µM [28, 41]: -15%
inhibition at 10 µM [29, 41]: -3%
inhibition at 10 µM [30, 41]: 0%
inhibition at 10 µM [31, 41]: 11%
Percent inhibition of control specific binding [32]: -1%
inhibition at 10 µM [33, 41]: 4%
inhibition at 10 µM [34, 41]: -7%
inhibition at 10 µM [35, 41]: -11%
Percent inhibition of control specific binding [36]: -4%
Percent inhibition of control specific binding [37]: 5%
inhibition at 10 µM [38, 41]: -7%
Percent inhibition of control specific binding [39]: -5%
Percent inhibition of control specific binding [40]: 1%

CC(=O)[C@H]1CC[C@H]2[C@@H]3CC=C4C[C@@H](O)CC[C@]4(C)[C@H]3CC[C@]12C [pregnenolone, reference compound]
Percent inhibition of control specific binding [1]: 10%
Percent inhibition of control specific binding [2]: -43%
Percent inhibition of control specific binding ([3]; 10 µM): 11%
Percent inhibition of control specific binding ([4]; 10 µM): -16%
Percent inhibition of control specific binding [5]: 4%
Percent inhibition of control specific binding ([6]; 10 µM): 12%
Percent inhibition of control specific binding ([7]; 10 µM): 1%
Percent inhibition of control specific binding ([8]; 10 µM): -9%
Percent inhibition of control specific binding ([9]; 10 µM): -3%
Percent inhibition of control specific binding [10]: -15%
Percent inhibition of control specific binding ([11]; 10 µM): -4%
Percent inhibition of control specific binding [12]: -8%
Percent inhibition of control specific binding ([13]; 10 µM): -1%
Percent inhibition of control specific binding ([14]; 10 µM): -4%
Percent inhibition of control specific binding [15]: 1%
Percent inhibition of control specific binding ([16]; 10 µM): 17%
Percent inhibition of control specific binding ([17]; 10 µM): -30%
Percent inhibition of control specific binding ([18]; 10 µM): 11%
Percent inhibition of control specific binding [19]: -18%
Percent inhibition of control specific binding ([20]; 10 µM): > 80% and 87%
Percent inhibition of control specific binding [21]: 29%
Percent inhibition of control specific binding [23]: > 40%
Percent inhibition of control specific binding ([23]; listed as Preg): 42%
Percent inhibition of control specific binding ([24]; 10 µM): 4%
Percent inhibition of control specific binding ([25]; 10 µM): -15%
Percent inhibition of control specific binding ([26]; 10 µM): -25%
Percent inhibition of control specific binding ([27]; 10 µM): -5%
Percent inhibition of control specific binding ([28]; 10 µM): -38%
Percent inhibition of control specific binding ([29]; 10 µM): -4%
Percent inhibition of control specific binding ([30]; 10 µM): 10%
Percent inhibition of control specific binding ([31]; 10 µM): 10%
Percent inhibition of control specific binding [32]: -19%
Percent inhibition of control specific binding ([33]; 10 µM): 0%
Percent inhibition of control specific binding ([34]; 10 µM): 2%
Percent inhibition of control specific binding ([35]; 10 µM): 26%
Percent inhibition of control specific binding [36]: 26%
Percent inhibition of control specific binding [37]: 23%
Percent inhibition of control specific binding ([38]; 10 µM): 6%
Percent inhibition of control specific binding [39]: -23%
Percent inhibition of control specific binding [40]: 38%

From article PMC10287566, “Signaling-specific inhibition of the CB1 receptor for cannabis use disorder: phase 1 and phase 2a randomized trials” (Nature Medicine, 2023)
